The NIST ThermoML archive (doi:10.1021/acs.jced.7b00464)

Experiment: mn = molality of the nth substance listed, in mol/kg
Details: 101.3 kPa, Liquid; for speed of sound: Frequency=3 MHz, Single path-length method; for mass density: Vibrating tube method

CCCCn1cc[n+](C)c1.[Br-] [1-butyl-3-methylimidazolium bromide] + O
Details	mass density, 293.15 K [kg/m3]	mass density, 298.15 K [kg/m3]	mass density, 303.15 K [kg/m3]	mass density, 308.15 K [kg/m3]	speed of sound, 293.15 K [m/s]	speed of sound, 298.15 K [m/s]	speed of sound, 303.15 K [m/s]	speed of sound, 308.15 K [m/s]
m1 = 0.1009	1003.27	1002.03	1000.58	998.918	1493.5	1506.5	1517.9	1527.7
m1 = 0.2003	1008.11	1006.83	1005.32	1003.62	1503.6	1515.8	1526.2	1535.2
m1 = 0.2985	1012.68	1011.33	1009.77	1008	1512.9	1524.5	1534.1	1542.4
m1 = 0.4006	1017.54	1016.13	1014.5	1012.7	1522.6	1533.1	1542	1549.4

CCCCn1cc[n+](C)c1.[Cl-] [1-butyl-3-methylimidazolium chloride] + O
Details	mass density, 293.15 K [kg/m3]	mass density, 298.15 K [kg/m3]	mass density, 303.15 K [kg/m3]	mass density, 308.15 K [kg/m3]	speed of sound, 293.15 K [m/s]	speed of sound, 298.15 K [m/s]	speed of sound, 303.15 K [m/s]	speed of sound, 308.15 K [m/s]
m1 = 0.101	999.535	998.308	996.883	995.222	1496.7	1509.8	1521.1	1530.8
m1 = 0.1997	1000.82	999.565	998.065	996.342	1510.4	1522.7	1533	1542
m1 = 0.3007	1002.1	1000.79	999.244	997.484	1523.6	1534.7	1544.3	1552.7
m1 = 0.4004	1003.37	1002	1000.4	998.586	1536.1	1546.5	1555.3	1562.6
